The results in this text go back to paper PMC3282187 (Neuron, 2012).

This test concerns neurons of the locus coeruleus (LC); mu opioid receptor-coupled K^+ channels. Type of test: cell-based, rat.

For `Nc1ccncc1` [4-AP], the “effect on residual Ba^2+-insensitive outward current” value is listed as “unable to block or occlude”.
Take `CC1(C)[C@@H](OC(=O)CCC(=O)O)CC[C@]2(C)[C@H]3C(=O)C=C4[C@@H]5C[C@@](C)(C(=O)O)CC[C@]5(C)CC[C@@]4(C)[C@]3(C)CC[C@@H]12` [carbenoxolone]: the “effect on responses to uncaging stimuli” value was “not significantly attenuated”.
Take ZD7288: the “effect on residual Ba^2+-insensitive outward current” value is recorded as “unable to block or occlude”.
